Reference: patent US4221781A, “Synergistic penicillin-cephalosporin compositions and methods” (priority 1971, dated 1980)
Blank lines part the entries; values can stand above or below the compound they belong to.

Experiments:
Type in all cases: cell-based
Coliform = experiment: Example 4: in vitro M.I.C., serial dilution test, coliforms
Description: (§1) Tryptose phosphate broth, containing the appropriate concentrations of the compounds or of the combination of them, was inoculated with 0.5×10^4 -5×10^4 organisms of the various microorganisms tested and incubated overnight at 37° C. Minimum inhibitory concentrations (M.I.C.) were taken as the concentrations of the compounds or of the combination at which no visible growth occurred.

E.coli III = experiment: Example 6: emergence of resistance, subculturing by serial twofold broth dilution; conditions: Escherichia coli
Description: Subculturing using a serial twofold broth dilution technique was performed with 6-(D-α-amino-phenylacetamido)-penicillanic acid (I), 6-[(piperidyl-1)methyleneamino]penicillanic acid (IV) and a 1:1 combination of I+IV. As inocula were used bacteria from the tube with the highest concentration of compound still permitting visible growth to the naked eye after incubation at 37° C. overnight. The following increases in MIC-values were noted.

[1] = system: clinically isolated coliform bacterium; experiment: Example 5: in vitro M.I.C. of IV, various penicillins and 1:1 combinations
Description: as §1
Using the same technique as described in Example 1 the in vitro activity of 6[(piperidyl-1)-methyleneamino]-penicillianic acid (IV), of various penicillins, and of 1:1 combinations of IV with these penicillins, was determined against a clinically isolated coliform bacterium.

Proteus [2] = experiment: Example 4: in vitro M.I.C., serial dilution test, Proteus; conditions: read-out: M.I.C.
Description: as §1

Klebsiella-Enterobacter [3] = experiment: Example 4: in vitro M.I.C., serial dilution test, Klebsiella-Enterobacter; conditions: read-out: M.I.C.
Description: as §1

[4] = system: Proteus (Proteus Mirabilis I 190); experiment: Example 11: in vitro M.I.C. of II, cephalosporins and 1:1 combinations; conditions: Proteus Mirabilis I 190, read-out: M.I.C.
Description: as §1
Using the same technique as described in Example 1 the in vitro activity of 6-[(hexahydro-1H-azepin-1-yl)methyleneamino]penicillanic acid (II), of various cephalosporins and of 1:1 combinations of II with these cephalosporins was determined against a clinically isolated strain of Proteus (Proteus Mirabilis I 190).

[5] = system: Klebsiella-Enterobacter (strain 4/71); experiment: Example 10: in vitro M.I.C. of II, cephalosporins and 1:1 combinations; conditions: Klebsiella-Enterobacter strain 4/71; read-out: M.I.C.
Description: as §1
Using the same technique as described in Example 1 the in vitro activity of 6-[(hexahydro-1H-azepin-1-yl)methyleneamino]penicillanic acid (II), of various cephalosporins previously mentioned in this specification, and of 1:1 combinations of II with these cephalosporins was determined against a clinically isolated strain of Klebsiella-Enterobacter (strain 4/71)

Coliforma = experiment: Example 9: in vitro MIC, serial dilution test, Coliforma
Description: as §1
(§2) Using the technique described in Example 1 the in vitro effect of combinations of 6-(D-α-aminophenylacetamido)-penicillanic acid (I) and 6-[(N,N-diethylformamidino)-N'-amino]penicillanic acid (VII) in the ratios 1:1, 1:2 and 2:1 against clinically isolated strains of Coliforma, Klebsiella-Enterobacter and Proteus was determined in serial dilution tests.

Klebsiella-Enterobacter [6] = experiment: Example 9: in vitro MIC, serial dilution test, Klebsiella-Enterobacter; conditions: read-out: MIC
Description: as §1, §2

Proteus [7] = experiment: Example 9: in vitro MIC, serial dilution test, Proteus; conditions: Proteus strain 9; read-out: MIC
Description: as §1, §2

Structure (SMILES): CC1(C)S[C@@H]2[C@H](N=CN3CCCCC3)C(=O)N2[C@H]1C(=O)O [IV, 6-[(piperidyl-1)-methyleneamino]penicillanic acid]
MIC (Coliform; Coliform strain 7/70): 1.56 µg/mL
MIC (Coliform; Coliform strain 16/70): 1.56 µg/mL
MIC (Coliform; Coliform strain 17/70): 1.56 µg/mL
MIC (E.coli III; passage 0): 0.78 µg/mL
MIC (E.coli III; passage 1): 6.25 µg/mL
MIC (E.coli III; passage 2): 6.28 µg/mL
MIC (E.coli III; passage 3): 25 µg/mL
MIC (E.coli III; passage 4): 25 µg/mL
MIC (E.coli III; passage 5): 25 µg/mL
MIC (E.coli III; passage 6): 25 µg/mL
MIC [1]: 6.25 µg/mL
MIC (Proteus [2]; Proteus strain 4/70): 25 µg/mL
MIC (Proteus [2]; Proteus strain 6/70): 3.12 µg/mL
MIC (Proteus [2]; Proteus strain 7/70): 50 µg/mL
MIC (Proteus [2]; Proteus strain 9/70): 100 µg/mL
MIC (Proteus [2]; Proteus strain 10/70): 25 µg/mL
MIC (Klebsiella-Enterobacter [3]; Klebsiella-Enterobacter strain 1/70): > 100 µg/mL
MIC (Klebsiella-Enterobacter [3]; Klebsiella-Enterobacter strain 2/70): 12.5 µg/mL
MIC (Klebsiella-Enterobacter [3]; Klebsiella-Enterobacter strain 5/70): > 100 µg/mL
MIC (Klebsiella-Enterobacter [3]; Klebsiella-Enterobacter strain 7/70): > 100 µg/mL
MIC (Klebsiella-Enterobacter [3]; Klebsiella-Enterobacter strain 9/70): 3.12 µg/mL
MIC (Klebsiella-Enterobacter [3]; Klebsiella-Enterobacter strain 10/70): > 100 µg/mL
MIC (Klebsiella-Enterobacter [3]; Klebsiella-Enterobacter strain 431): > 100 µg/mL

MIC [4]: 6.25 µg/mL
MIC [5]: 12.5 µg/mL
Structure (SMILES): Cc1nnc(SCC2=C(C(=O)O)N3C(=O)[C@@H](NC(=O)Cn4cnnn4)[C@H]3SC2)s1 [Cephazoline]

MIC [4]: 12.5 µg/mL
MIC [5]: 50 µg/mL
Structure (SMILES): CC(=O)OCC1=C(C(=O)O)N2C(=O)[C@@H](NC(=O)CC#N)[C@H]2SC1 [Cephacetrile]

Structure (SMILES): CCN(C=NC1C(=O)N2C1SC(C)(C)C2C(=O)O)CC (stereo not shown) [VII, 6-[(N,N-diethylformamidino)-N'-amino]penicillanic acid]
MIC (Coliforma; Coliforma strain 1): 3.12 µg/mL
MIC (Coliforma; Coliforma strain 4): 3.12 µg/mL
MIC (Coliforma; Coliforma strain 7): 6.25 µg/mL
MIC (Coliforma; Coliforma strain 16): 6.25 µg/mL
MIC (Klebsiella-Enterobacter [6]; Klebsiella-Enterobacter strain 1): > 100 µg/mL
MIC (Klebsiella-Enterobacter [6]; Klebsiella-Enterobacter strain 5): > 100 µg/mL
MIC (Klebsiella-Enterobacter [6]; Klebsiella-Enterobacter strain 7): > 100 µg/mL
MIC (Klebsiella-Enterobacter [6]; Klebsiella-Enterobacter strain 8): 12.5 µg/mL
MIC (Proteus [7]): 100 µg/mL

MIC [4]: 12.5 µg/mL
MIC [5]: 100 µg/mL
Structure (SMILES): [N-]=[N+]=NCC1=C(C(=O)O)N2C(=O)C(NC(=O)Cc3cccs3)C2SC1 (stereo not shown) [EPC 821/4II]

Structure (SMILES): CC1(C)S[C@@H]2[C@H](NC(=O)C(C(=O)O)c3ccccc3)C(=O)N2[C@H]1C(=O)O (stereo partly drawn) [α-carboxybenzylpenicillin]
MIC [1]: 12.5 µg/mL

MIC [4]: 25 µg/mL
MIC [5]: > 100 µg/mL
Structure (SMILES): CC(=O)OCC1=C(C(=O)O)N2C(=O)C(NC(=O)Cc3ccccc3)C2SC1 (stereo not shown) [EPC 807 2/b]

MIC [4]: 50 µg/mL
MIC [5]: > 100 µg/mL
Structure (SMILES): CC(=O)OCC1=C(C(=O)O)N2C(=O)C(NC(=O)Cc3cccc(Cl)c3)C2SC1 (stereo not shown) [EPC 820/1b]
